Data set [1] deals with LoVo cells. Nature of the data set: Western blotting of EMT markers, LoVo. It counts as cell-based. The note with it: 48 h. As to the method: (§1) For western blot analysis, cells were treated with the indicated inhibitors for 48 h and the whole cell extracts were obtained as described previously. Twenty micrograms of lysates were resolved on a 10% polyacrilamide SDS-PAGE followed by western blot analysis performed as previously described. For immunofluorescence assays cells were grown for 24 h on glass coverslips and treated with the indicated inhibitors for 48 h. Cells were fixed with 4% PFA for 15 min, permeabilized with 0.5% […] and incubated with E-cadherin antibody for 2 h. Coverslips were incubated with fluorescein-tagged secondary antibody (Dakopatts, Sweden) for […]. Finally coverslips were mounted with ProLong Gold antifade reagent (LifeTech, UK) and images were taken in epifluorescence microscope (Olympus) using 40× objective.

In data set [2] the test system is HT-29 cells. Nature of the data set: Western blotting of EMT markers, HT-29. It counts as cell-based. The note with it: 48 h. As to the method:
as §1

For data set [3], the system named is HT-29 colon tumour cell line. Nature of the data set: MTT cell viability assay, HT29. It counts as cell-based. The note with it: 72 h, analogues at 50-500 μM. The protocol:
For cytotoxicity assays, 1×10^4 cells were seeded per well into a 96-well plate. After 24 h cells were treated with the indicated inhibitors for 72 h and a MTT colorimetric cell viability assay was performed following manufacturer's instructions (Sigma Aldrich, St Louis, Mo.). Absorbance was measured at 570 and 630 nm using a Multiskan Plus Reader (Nanoquant Infinite M200 Tecan Trading AG, Switzerland). Dose-response curves were designed with Graph Pad Prism Software and the half-maximal inhibitory concentration (IC50) values were calculated. Represented data are the mean±SEM of at least three independent experiments with six replicates per condition.

Data set [4] has as its system HT-29 cells. Nature of the data set: Soft agar-colony formation assay, HT29. It counts as cell-based. The note with it: 28 days. The protocol: Soft agar-colony formation assay was performed on 12-well plates in triplicates at a density of 5×10^3 MDCK and MDCK-Hakai cells/well, or 12×10^3 HT29 cells/well. Cells were seeded in medium with 0.5% low-melting agarose over a layer with 0.75% low-melting agarose (Lonza Rockland, Me., USA). Cells were treated with the indicated inhibitors and DMSO was used as vehicle. Treatment was refreshed every 3 days and, after 21 days for MDCK and MDCK-Hakai cells or 28 days for HT29 cells, number of colonies were quantified. Quantification of five randomly-selected fields of each condition was photographed with a Nikon Eclipse-TI microscope (objective 4×). Experiments were conducted with three triplicates and were repeated three times. Data are represented as mean±SD.

A further data set deals with renal cancer ACHN cells. Nature of the data set: BrdU proliferation assay, ACHN. It is filed as cell-based, human. Particulars: 48 h. As to the method:
(§2) For BrdU assays, 1×10^4 of indicated cells were plated per well into a 96-well plate. After 24 h, cells were treated with the indicated inhibitors for 48 h. Three independent experiments were plated with six replicates per each condition. Cells were treated with […] BrdU for 2 h. BrdU incorporation into newly synthesized DNA was measured using a cell proliferation colorimetric immunoassay kit according to the manufacturer's instructions (Roche, Switzerland). Results are expressed as mean±S.D. Results are represented as percentage of positive cells (mean±S.D) of three independent experiments.

In data set [5] the test system is prostate cancer PC-3 cells. The data set is described as follows: BrdU proliferation assay, PC-3. Particulars: 48 h. It is filed as cell-based, human. As to the method:
as §2

A further data set concerns HT29 cells. Nature of the data set: BrdU proliferation assay, HT29. The note with it: 48 h. It is filed as cell-based. As to the method: as §2
In data set [6] the test system is Hakai-MDCK xenograft tumours. The data set is described as follows: Tumour xenograft model (Hakai-MDCK cells in nude mice). It is filed as in vivo, athymic nu/nu mice. As to the method: Xenografts experiments were performed in Experimental Surgery Unit—Technological Training Center from INIBIC in compliance with the European Community Law (86/609/EEC) and the Spanish law (R.D. 53/2013). The experiment was approved by the Ethics Committee for Animal Experimentation of Xerencia de Xestion Integrada da Coruna (XXIAC). Mice were in a 12/12 hours light/dark cycle with water and food available ad libitum. Six weeks old athymic nu/nu mice were randomly distributed in groups. One million of MDCK cells, resuspended in DMEM without serum and antibiotic, were subcutaneously inoculated in both flanks in two groups of 3 animals. The same number of Hakai-MDCK cells were injected in two groups of 4 animals. Twenty days after inoculation tumours in Hakai-MDCK were palpable. Then, half of the animals were treated with Hakin-1 (5 mg/kg) and the other half with the same concentration of DMSO every 3 days. Tumour outgrowth was monitored twice a week taking measurements of tumour length (L) and width (W) with an electronic calipter. Tumour volume was calculated as pLW2/6. Forty days after inoculation, animals were sacrificed. Tumours, lungs, kidneys and livers were collected and fixed in 4% PFA and embedded in paraffin blocks for histology and/or immunohistochemistry (IHC) analyses.
Tumours and tissues were deparaffinised, rehydrated and stained with haematoxylin and eosin (H&E) as previously described. Tumour sections (4 μm) were also deparaffinised and hydrated for immunohistochemistry. Antigen retrieval was carried by heating the samples (2100 Retriever; PickCell Laboratories) in citrate buffer (Dako REAL, Denmark) or in EDTA buffer. Then, endogenous peroxidase activity was blocked with peroxidase blocking (DakoCytomation, Denmark). Samples were blocked and permeabilized with 0.2% BSA and 0.1% Tx-100 for 1 hour and incubated with the indicated primary antibodies overnight at 4° C. in a wet chamber. Slides were incubated for 1 hour at room temperature with the secondary antibody and detection was carried our using DAB (DakoReal Envision kit) according to manufacturer instructions. Finally, nuclei were counterstained with Gill's Hematoxylin and mounted with DePeX. Pictures were taken with an Olympus microscope. Quantification of images was performed taken 5 photographs of each animal with Image J programme and the represented results are shown as mean±SEM. The number of mitosis was counted in sections stained with H&E. In this case, ten pictures of each tumour were taken with an Olympus BX50 microscope (objective 40×) and the number of mitosis was counted manually. Results are represented as mean±SEM and a representative photograph is shown for each condition. […]
Tissue sections from tumours were deparaffinised and rehydrated using standard protocols. The slides were rinsed twice with PBS and treated with citrate buffer buffer (Dako REAL, Denmark) in microwave at 350 W for 5 min. The tissue sections were then analysed with an in situ Cell Death Detection Kit, Fluorescein (Roche) following the manufacturer's instructions. Then, slides were incubated with Hoechst for 5 min in darkness. The reaction was visualized under an epifluorescence Olympus microscope using 20× objective. Five representative pictures of each section were taken. The percentage of positive cells was calculated and results are represented as mean±SEM.

The test system of data set [7] is LoVo cells. Nature of the data set: Immunofluorescence of E-cadherin, LoVo. It counts as cell-based. The note with it: 48 h. As to the method:
as §1

The subject of a further data set is Hakai-MDCK cells. The data set is described as follows: E-cadherin protein levels, Hakai-MDCK. It is filed as cell-based. The note with it: mesenchymal Hakai-MDCK cells, no basal E-cadherin. The protocol:
as §1

Setting [8] is: Hakai-MDCK xenograft tumours, 5 mg/kg every 3 days.
Setting [9] is: Hakai-MDCK xenograft, 5 mg/kg every 3 days.

Turning to `O=C(O)c1ccc(-n2nnnc2SCC(=O)c2ccc([N+](=O)[O-])cc2)cc1` [Hakin-1, 4-(5-{[2-(4-nitrophenyl)-2-oxoethyl]thiol}-1H-tetrazol-1-yl)benzoic acid], in the data set with LoVo cells [1], the “EMT markers (western blotting)” value is recorded as “confirmed these results”. In addition, in the data set with HT-29 cells [2], the “Cortactin expression levels (western blotting)” value is given as “increase expression levels”, the “E-cadherin levels (western blotting)” value was “increase E-cadherin levels” and the “mesenchymal Vimentin marker (western blotting)” value is reported as “reduced”. Besides, the “cytotoxicity effect (cell viability, MTT)” value in [3] is “important inhibitory response”. Moreover, the “colony formation (soft agar)” value with HT-29 cells [4] was “robust inhibition of colony formation”. For the same compound, in the data set with renal cancer ACHN cells, the “cell proliferation (BrdU)” value is given as “inhibits cell proliferation”. Moreover, the “cell proliferation (BrdU)” value in [5] was “inhibits cell proliferation”. The “cell proliferation (BrdU)” value in the data set on HT29 cells is “reduced cell proliferation”. Besides, the “micrometastasis detected in lung (quantitative PCR of HA-tagged Hakai DNA)” value in [6] (Hakai-MDCK xenograft mice, compared to DMSO treated mice) is listed as “significant reduction of micrometastasis”. In addition, the “Cortactin expression (immunohistochemistry)” value in [6] (Hakai-MDCK xenograft tumours) was “recovered”. For the same compound, the “E-cadherin (immunohistochemistry)” value in data set [6] (Hakai-MDCK xenograft tumours, in presence or absence of treatment) is “not detected”. Also, in data set [6] (setting [8]), the “apoptosis (TUNEL assay)” value is “no effect on apoptosis was detected”, the “mitotic-index (H&E)” value is given as “markedly reduce” and the “number of Ki67-positive cells (immunohistochemistry)” value is “markedly reduce”. In addition, the “number of blood vessels (CD31 angiogenic marker)” value in data set [6] (Hakai-MDCK xenograft tumours, vs non-treated tumours) is given as “strong reduction on the number of blood vessels”. Moreover, the xenograft tumour growth result in data set [6] (Hakai-MDCK xenograft, nude mice, 5 mg/kg every 3 days, vs DMSO) is recorded as “potent effect on inhibiting xenograft tumour growth”. Besides, in data set [6] (setting [9]), the “tumour-cell infiltration in blood vessels (H&E)” value is on record as “no infiltration was detected”; the “xenograft tumour cell morphology (H&E)” value is “induction of tumour differentiation and an increase in cytoplasm size”. The “tissue damage (H&E, morphological structure)” value in [6] (lung and kidney tissues of treated nude mice, 5 mg/kg) is listed as “no damage was observed”. In addition, the “N-cadherin expression (immunohistochemistry)” value in data set [6] (tumour xenografts, compared to DMSO treated mice) was “strongly reduced”. The “E-cadherin levels at cell-cell contacts (immunofluorescence)” value with LoVo cells [7] was “significant increase E-cadherin levels at cell-cell contacts”. Also, the E-cadherin protein levels result with Hakai-MDCK cells is listed as “no recovery was detected”.

These data come from patent publication US20220016080A1, “COMPOUNDS THAT SELECTIVELY AND EFFECTIVELY INHIBIT HAKAI-MEDIATED UBIQUITINATION, AS ANTI-CANCER DRUGS” (FUNDACIÓN PROFESOR NOVOA SANTOS, priority 2018, published 2022).
